Test results taken from patent publication EP4722219A1 (Gan & Lee Pharmaceuticals Co., Ltd., priority 2023, dated 2024).

What was measured:
Type in all cases: cell-based
T-47D cells = experiment: Inhibition of cell proliferation in T-47D cells (CCK-8); settings: Homo sapiens, T47D, 144 h, 6 days treatment, CCK-8 cell viability
Method in brief: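 Viability by CCK-8 after a 6-day, 37 °C/5% CO2 exposure of T-47D cells (3,000/well, RPMI-1640 + 10% FBS) to graded PROTAC concentrations. Inhibition rates gave the IC50.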

ERα [1] = biological target: T1, ERα (Homo sapiens, UniProt P03372); experiment: ERα degradation in T-47D cells (Western blot); settings: 4 hours
T1 sequence (P03372 1-595): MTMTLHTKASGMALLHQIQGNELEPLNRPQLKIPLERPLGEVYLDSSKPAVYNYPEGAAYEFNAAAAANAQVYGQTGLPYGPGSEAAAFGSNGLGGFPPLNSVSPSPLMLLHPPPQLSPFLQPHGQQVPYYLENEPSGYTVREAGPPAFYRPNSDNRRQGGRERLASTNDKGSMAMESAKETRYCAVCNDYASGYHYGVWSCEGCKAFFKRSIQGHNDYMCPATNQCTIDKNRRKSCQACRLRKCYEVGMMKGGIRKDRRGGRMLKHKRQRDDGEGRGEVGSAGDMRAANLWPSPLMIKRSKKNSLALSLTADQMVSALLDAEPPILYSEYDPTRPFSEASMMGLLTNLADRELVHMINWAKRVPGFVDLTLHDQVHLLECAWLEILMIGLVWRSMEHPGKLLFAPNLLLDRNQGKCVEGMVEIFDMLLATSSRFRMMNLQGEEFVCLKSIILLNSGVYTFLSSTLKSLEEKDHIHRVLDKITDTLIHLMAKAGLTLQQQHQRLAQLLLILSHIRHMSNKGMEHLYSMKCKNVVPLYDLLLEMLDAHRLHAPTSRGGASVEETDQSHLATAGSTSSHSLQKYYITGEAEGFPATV
Method in brief: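 ERα was quantified by immunoblot of RIPA lysates (20 µg total protein), normalised to an internal reference band, and degradation was expressed against control. Lysates came from T-47D cells plated at 3×10^5 cells/well and dosed 4 hours at 37°C with compound at 0.15-1000 nM final concentration.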

MCF-7 cells = experiment: Inhibition of cell proliferation in MCF-7 cells (CCK-8); settings: Homo sapiens, MCF7, 144 h, MCF-7 cell proliferation, 6 days treatment
Method in brief: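 IC50 from CCK-8 viability-based inhibition after 6-day treatment of MCF-7 cells (800 cells/well, 10% FBS DMEM, 37 °C, 5% CO2) with serially varied compound concentrations.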

ERα [2] = biological target: T1, ERα; experiment: ERα degradation in MCF-7 cells (Western blot); parameters: host or cells: MCF-7; settings: 4 hours
Method in brief: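 ERα degradation was quantified by immunoblot densitometry, ERα signal divided by internal-reference signal and compared with control. Compounds were applied to MCF-7 cells for 4 hours at final concentrations of 0.15–1000 nM, with 20 µg total protein loaded per lane.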

Row | Compound | IC50 (T-47D cells) [nM] | Degradation rate of ERα in T-47D cells (%) (ERα [1]; 1nM) | Degradation rate of ERα in T-47D cells (%) (ERα [1]; 10nM) | IC50 (MCF-7 cells) [nM] | Degradation rate of ERα in MCF-7 cells (%) (ERα [2]; 1nM) | Degradation rate of ERα in MCF-7 cells (%) (ERα [2]; 10nM)
1 | CN(c1ccc2c(c1)OCC21CCN(C[C@H]2CC[C@@H](OC3CCN(c4ccc([C@@H]5c6ccc(O)cc6CC[C@@H]5c5ccccc5)cc4)CC3)CC2)CC1)C1CCC(=O)NC1=O (stereo partly drawn) [ER-P-32, 3-((1'-(((1S,4s)-4-((1-(4-((1R,2S)-6-hydroxy-2-phenyl-1,2,3,4-tetrahydronaphthalen-1-yl)phenyl)piperidin-4-yl)oxy)cyclohexyl)methyl)-2H-spiro[benzofuran-3,4'-piperidin]-6-yl)(methyl)amino)piperidine-2,6-dione] | 19.5 | -2 | 15 | 705 | 12 | 13
2 | O=C1CCC(Nc2ccc3c(c2)OC2(CC3)CN(C[C@H]3CC[C@@H](OC4CCN(c5ccc([C@@H]6c7ccc(O)cc7CC[C@@H]6c6ccccc6)cc5)CC4)CC3)C2)C(=O)N1 (stereo partly drawn) [ER-P-33, 3-((1-(((1S,4s)-4-((1-(4-((1R,2S)-6-hydroxy-2-phenyl-1,2,3,4-tetrahydronaphthalen-1-yl)phenyl)piperidin-4-yl)oxy)cyclohexyl)methyl)spiro[azetidine-3,2'-chroman]-7'-yl)amino)piperidine-2,6-dione] | 15.5 | -16 | 32 | 2330 | -5 | -9
3 | O=C1CCC(Nc2ccc3c(c2)COC[C@H]2CN(C[C@H]4CC[C@@H](OC5CCN(c6ccc([C@@H]7c8ccc(O)cc8CC[C@@H]7c7ccccc7)cc6)CC5)CC4)CCN32)C(=O)N1 (stereo partly drawn) [ER-P-34, 3-(((R)-3-(((1S,4S)-4-((1-(4-((1R,2S)-6-hydroxy-2-phenyl-1,2,3,4-tetrahydronaphthalen-1-yl)phenyl)piperidin-4-yl)oxy)cyclohexyl)methyl)-1,2,3,4,4a,5-hexahydro-7H-benzo[e]pyrazino[2,1-c][1,4]oxazepin-9-yl)amino)piperidine-2,6-dione] | 26.9 | 15 | 24 | 2120 | 5 | 17
4 | O=C1CCC(Nc2ccc3c(c2)OC[C@@H]2CN(C4CC5(CCN(c6ccc([C@@H]7c8ccc(O)cc8CC[C@@H]7c7ccccc7)cc6)CC5)C4)CCN32)C(=O)N1 (stereo partly drawn) [ER-P-35] | 22.7 | 21 | 21 | 876 | 6 | -3
5 | O=C1CCC(Nc2ccc3c(c2)OC[C@@H]2CN(C4CCC5(CC4)CN(c4ccc([C@@H]6c7ccc(O)cc7CC[C@@H]6c6ccccc6)cc4)C5)CCN32)C(=O)N1 (stereo partly drawn) [ER-P-36, 3-(((S)-3-(2-(4-((1R,2S)-6-hydroxy-2-phenyl-1,2,3,4-tetrahydronaphthalen-1-yl)phenyl)-2-azaspiro[3.5]nonan-7-yl)-1,2,3,4,4a,5-hexahydrobenzo[b]pyrazino[1,2-d][1,4]oxazin-8-yl)amino)piperidine-2,6-dione] | 25.1 | 0 | 1 | 2280 | 7 | -11
6 | O=C1CC[C@H](NC(=O)c2ccc3c(c2F)OCC32CCN(C3CC4(CCN(c5ccc([C@@H]6c7ccc(O)cc7CC[C@@H]6c6ccccc6)cc5)CC4)C3)CC2)C(=O)N1 [ER-P-37, N-((S)-2,6-dioxopiperidin-3-yl)-7-fluoro-1'-(7-(4-((1R,2S)-6-hydroxy-2-phenyl-1,2,3,4-tetrahydronaphthalen-1-yl)phenyl)-7-azaspiro[3.5]nonan-2-yl)-2H-spiro[benzofuran-3,4'-piperidine]-6-carboxamide] | 18.9 | 6 | 4 | 1400 | -6 | -9
7 | O=C1CC[C@H](NC(=O)c2ccc3c(c2F)OCC32CCN(C3CCC4(CC3)CN(c3ccc([C@@H]5c6ccc(O)cc6CC[C@@H]5c5ccccc5)cc3)C4)CC2)C(=O)N1 [ER-P-38, N-((S)-2,6-dioxopiperidin-3-yl)-7-fluoro-1'-(2-(4-((1R,2S)-6-hydroxy-2-phenyl-1,2,3,4-tetrahydronaphthalen-1-yl)phenyl)-2-azaspiro[3.5]nonan-7-yl)-2H-spiro[benzofuran-3,4'-piperidine]-6-carboxamide] | 18.6 | 1 | 3 | 505 | 12 | -14
8 | O=C1CC[C@H](NC(=O)c2ccc3c(c2F)OCC32CCN(C3CCC4(CC3)CCN(c3ccc([C@@H]5c6ccc(O)cc6CC[C@@H]5c5ccccc5)cc3)CC4)CC2)C(=O)N1 [ER-P-39, N-((S)-2,6-dioxopiperidin-3-yl)-7-fluoro-1'-(3-(4-((1R,2S)-6-hydroxy-2-phenyl-1,2,3,4-tetrahydronaphthalen-1-yl)phenyl)-3-azaspiro[5.5]undecan-9-yl)-2H-spiro[benzofuran-3,4'-piperidine]-6-carboxamide] | 14.2 | -7 | -3 | 526 | -13 | -16
9 | CN(C(=O)CN1CCC2(CC1)COc1c2ccc(F)c1C(=O)N[C@H]1CCC(=O)NC1=O)C1CCC2(CC1)CN(c1ccc([C@@H]3c4ccc(O)cc4CC[C@@H]3c3ccccc3)cc1)C2 [ER-P-40, N-((S)-2,6-dioxopiperidin-3-yl)-6-fluoro-1'-(2-((2-(4-((1R,2S)-6-hydroxy-2-phenyl-1,2,3,4-tetrahydronaphthalen-1-yl)phenyl)-2-azaspiro[3.5]nonan-7-yl)(methyl)amino)-2-oxoethyl)-2H-spiro[benzofuran-3,4'-piperidine]-7-carboxamide] | 28.4 | 22 | 34 | 6210 | -10 | -53
10 | O=C1CCC(Nc2ccc3c(c2)OCC2(CCN(C[C@H]4CC[C@@H](OC5CCN(c6ccc([C@@H]7c8ccc(O)cc8CC[C@@H]7c7ccccc7)cc6)CC5)CC4)CC2)C3)C(=O)N1 (stereo partly drawn) [ER-P-41] | 37.3 | 17 | 21 | 377 | 13 | 15
11 | O=C1CC[C@H](NC(=O)c2ccc3c(c2F)OCC32CCN(CC3CCN(c4ccc([C@@H]5c6ccc(O)cc6CC[C@@H]5c5ccccc5)cc4)CC3)CC2)C(=O)N1 [ER-P-42, N-((S)-2,6-dioxopiperidin-3-yl)-7-fluoro-1'-((1-(4-((1R,2S)-6-hydroxy-2-phenyl-1,2,3,4-tetrahydronaphthalen-1-yl)phenyl)piperidin-4-yl)methyl)-2H-spiro[benzofuran-3,4'-piperidine]-6-carboxamide] | 10.4 | -27 | -28 | 4500 | -20 | -3
12 | O=C1CCC(Nc2ccc3c(c2)OC2(CC3)CCN(C[C@H]3CC[C@@H](OC4CCN(c5ccc([C@@H]6c7ccc(O)cc7CC[C@@H]6c6ccccc6)cc5)CC4)CC3)CC2)C(=O)N1 (stereo partly drawn) [ER-P-43, 3-((1'-(((1S,4s)-4-((1-(4-((1R,2S)-6-hydroxy-2-phenyl-1,2,3,4-tetrahydronaphthalen-1-yl)phenyl)piperidin-4-yl)oxy)cyclohexyl)methyl)spiro[chromane-2,4'-piperidin]-7-yl)amino)piperidine-2,6-dione] | 95.1 | 10 | -1 | 1070 | -13 | -19
